Assay: mn = molality of the nth substance listed, in mol/kg
Settings: Liquid, Vibrating tube method

[Br-].[Li+] [lithium bromide] + CCO
Settings	mass density [kg/m3]
298.15 K, 60024 kPa, m1 = 0.9499	885.07
298.15 K, 69784 kPa, m1 = 0.2335	847.83
298.15 K, 69784 kPa, m1 = 0.9499	890.31
298.15 K, 69931 kPa, m1 = 0.5972	869.87
298.15 K, 69993 kPa, m1 = 1.462	920.05
298.15 K, 79215 kPa, m1 = 0.9499	895.14
298.15 K, 79970 kPa, m1 = 2.272	969.11
298.15 K, 80014 kPa, m1 = 2.833	998.77
298.15 K, 80151 kPa, m1 = 0.5972	875.11
298.15 K, 89921 kPa, m1 = 0.2335	857.88
298.15 K, 89926 kPa, m1 = 0.9499	900.43
298.15 K, 89927 kPa, m1 = 2.833	1003.47
298.15 K, 89963 kPa, m1 = 0.5972	879.79
298.15 K, 99468 kPa, m1 = 0.2335	862.11
298.15 K, 99739 kPa, m1 = 1.462	933.99
298.15 K, 99874 kPa, m1 = 0.5972	884.17
298.15 K, 99968 kPa, m1 = 2.833	1008.08
298.15 K, 99975 kPa, m1 = 0.9499	905.24
298.16 K, 1341 kPa, m1 = 1.462	876.32
298.16 K, 9986 kPa, m1 = 2.833	958.39
298.16 K, 20192 kPa, m1 = 0.5972	838.95
298.16 K, 39784 kPa, m1 = 0.2335	830.01
298.16 K, 49924 kPa, m1 = 2.833	983.25
298.16 K, 89994 kPa, m1 = 1.462	929.76
298.17 K, 9947 kPa, m1 = 1.462	882.69
298.17 K, 59942 kPa, m1 = 0.2335	842.36
298.17 K, 69994 kPa, m1 = 3.368	1020.58
298.17 K, 80053 kPa, m1 = 1.462	925.1
298.18 K, 2703 kPa, m1 = 3.368	980.82
298.18 K, 5041 kPa, m1 = 3.368	982.47
298.18 K, 5165 kPa, m1 = 2.272	925.09
298.18 K, 9642 kPa, m1 = 2.272	928.25
298.18 K, 9735 kPa, m1 = 3.368	985.72
298.18 K, 9947 kPa, m1 = 0.5972	831.46
298.18 K, 19511 kPa, m1 = 3.368	992.17
298.18 K, 29936 kPa, m1 = 3.368	998.66
298.18 K, 40157 kPa, m1 = 3.368	1004.65
298.18 K, 49943 kPa, m1 = 3.368	1010.11
298.19 K, 2166 kPa, m1 = 2.272	922.88
298.19 K, 20358 kPa, m1 = 1.462	890.05
298.2 K, 20184 kPa, m1 = 2.272	935.31
298.2 K, 59916 kPa, m1 = 3.368	1015.42
313.09 K, 4759 kPa, m1 = 0.5972	815.39
313.11 K, 1319 kPa, m1 = 2.272	910.08
313.11 K, 2109 kPa, m1 = 1.462	864.85
313.11 K, 4863 kPa, m1 = 2.272	912.94
313.11 K, 9792 kPa, m1 = 0.5972	819.49
313.13 K, 5147 kPa, m1 = 1.462	867.25
313.13 K, 19554 kPa, m1 = 0.5972	827.15
313.14 K, 5102 kPa, m1 = 2.833	943.28
313.14 K, 9982 kPa, m1 = 2.272	916.81
313.14 K, 19956 kPa, m1 = 0.2335	804.92
313.14 K, 20135 kPa, m1 = 2.272	924.35
313.14 K, 29993 kPa, m1 = 2.272	931.18
313.14 K, 40450 kPa, m1 = 2.272	937.95
313.14 K, 50014 kPa, m1 = 0.2335	826.45
313.14 K, 59926 kPa, m1 = 2.833	978.99
313.15 K, 1021 kPa, m1 = 2.833	940.06
313.15 K, 1045 kPa, m1 = 0.9499	833.87
313.15 K, 2012 kPa, m1 = 0.2335	789.9
313.15 K, 5003 kPa, m1 = 0.9499	837.08
313.15 K, 5028 kPa, m1 = 0.2335	792.77
313.15 K, 9909 kPa, m1 = 1.462	870.96
313.15 K, 9978 kPa, m1 = 2.833	947
313.15 K, 9985 kPa, m1 = 0.9499	841.04
313.15 K, 19924 kPa, m1 = 0.9499	848.66
313.15 K, 19994 kPa, m1 = 1.462	878.53
313.15 K, 29451 kPa, m1 = 2.833	960.7
313.15 K, 29924 kPa, m1 = 0.2335	812.49
313.15 K, 29935 kPa, m1 = 0.9499	855.96
313.15 K, 29958 kPa, m1 = 0.5972	834.89
313.15 K, 29979 kPa, m1 = 1.462	885.66
313.15 K, 39844 kPa, m1 = 0.5972	841.83
313.15 K, 40021 kPa, m1 = 0.9499	862.92
313.15 K, 49925 kPa, m1 = 1.462	898.82
313.15 K, 49925 kPa, m1 = 2.272	943.67
313.15 K, 49963 kPa, m1 = 0.5972	848.54
313.15 K, 49968 kPa, m1 = 2.833	973.38
313.15 K, 50035 kPa, m1 = 0.9499	869.45
313.15 K, 59623 kPa, m1 = 1.462	904.69
313.15 K, 59831 kPa, m1 = 0.5972	854.67
313.15 K, 60002 kPa, m1 = 0.2335	832.74
313.15 K, 60047 kPa, m1 = 0.9499	875.6
313.15 K, 69784 kPa, m1 = 0.9499	881.21
313.15 K, 69784 kPa, m1 = 2.833	984.26
313.15 K, 69928 kPa, m1 = 1.462	910.56
313.15 K, 69997 kPa, m1 = 0.5972	860.59
313.15 K, 79828 kPa, m1 = 0.5972	865.9
313.15 K, 79877 kPa, m1 = 1.462	915.87
313.15 K, 79935 kPa, m1 = 0.9499	886.68
313.15 K, 80042 kPa, m1 = 0.2335	844.05
313.15 K, 89924 kPa, m1 = 0.2335	848.99
313.15 K, 89925 kPa, m1 = 2.833	994.32
313.15 K, 89926 kPa, m1 = 1.462	920.86
313.15 K, 89986 kPa, m1 = 0.9499	891.71
313.15 K, 89993 kPa, m1 = 0.5972	870.99
313.15 K, 99841 kPa, m1 = 0.5972	875.52
313.15 K, 99954 kPa, m1 = 0.9499	896.31
313.15 K, 99985 kPa, m1 = 0.2335	853.58
313.15 K, 99985 kPa, m1 = 2.833	999.09
313.16 K, 10023 kPa, m1 = 0.2335	796.94
313.16 K, 19926 kPa, m1 = 2.833	954.23
313.16 K, 39715 kPa, m1 = 1.462	892.26
313.16 K, 40032 kPa, m1 = 0.2335	819.73
313.16 K, 59995 kPa, m1 = 2.272	949.4
